Drawing on ChEMBL document CHEMBL5537158, “Polymyxins with Potent Antibacterial Activity against Colistin-Resistant Pathogens: Fine-Tuning Hydrophobicity with Unnatural Amino Acids” (J Med Chem, 2024), this text covers hemolysis and MIC for 9 compounds.

Data set [1] in a line: Hemolytic activity in human RBC at 400 ug/ml after 1 hr. The format is toxicity, cell-based, Erythrocyte. To be noted: red blood cells (erythrocytes), at 400 µg/mL, read-out: Activity.
For data set [2], the system named is Acinetobacter baumannii. Kind of data set: Antimicrobial activity against colistin resistant Acinetobacter baumannii ATCC 3658/17 assessed as bacterial growth inhibition incubated for 20 hrs by broth microdilution method. In kind it is functional. (Dilution methods test growth across graded concentrations, often in twofold steps.)
Data set [3] relates to Acinetobacter baumannii. Put plainly: Antimicrobial activity against Acinetobacter baumannii ATCC 19606 assessed as bacterial growth inhibition incubated for 20 hrs by broth microdilution method. In kind it is functional.
Data set [4] concerns Escherichia coli. Kind of data set: Antibacterial activity against Escherichia coli ATCC 25922 assessed as bacterial growth inhibition incubated for 20 hrs by broth microdilution method. The format is functional.
The subject of data set [5] is Pseudomonas aeruginosa. Put plainly: Antimicrobial activity against Pseudomonas aeruginosa PAO1 assessed as bacterial growth inhibition incubated for 20 hrs by broth microdilution method. The format is functional.
Data set [6] deals with Pseudomonas aeruginosa. Kind of data set: Antimicrobial activity against colistin resistant Pseudomonas aeruginosa 7197/19 assessed as bacterial growth inhibition incubated for 20 hrs by broth microdilution method. The format is functional.
For data set [7], the system named is Escherichia coli. Kind of data set: Antimicrobial activity against […] Escherichia coli harboring mcr-1 assessed as bacterial growth inhibition incubated for 20 hrs by broth microdilution method. The format is functional.

Converted amounts (≈) assume the structure as drawn. Positions of bridges follow the written chain, without caps; N, C: chain ends. Non-standard residues stand in square brackets, D forms with d. Residues, ends and D or L forms follow the SMILES beside them. *: point of attachment. Phe(3,4,5-F3) = N[C@@H](Cc1cc(F)c(F)c(F)c1)C(=O)O; Phe(4-CF3) = N[C@@H](Cc1ccc(C(F)(F)F)cc1)C(=O)O; Phe(4-Br) = N[C@@H](Cc1ccc(Br)cc1)C(=O)O; Phe(4-Cl) = N[C@@H](Cc1ccc(Cl)cc1)C(=O)O; Phe(3-F) = N[C@@H](Cc1cccc(F)c1)C(=O)O; d(hhPhe) = N[C@H](CCCc1ccccc1)C(=O)O; d(hPhe) = N[C@H](CCc1ccccc1)C(=O)O; Octanoyl = CCCCCCCC(=O)*; Dab = NCC[C@H](N)C(=O)O

What is called MIC is the smallest concentration in the dilution series that meets the test's criterion for growth inhibition. Consider `CC(=O)N[C@H](Cc1ccc(F)cc1)C(=O)N[C@@H](CCN)C(=O)N[C@H](C(=O)N[C@@H](CCN)C(=O)N[C@H]1CCNC(=O)[C@H]([C@@H](C)O)NC(=O)[C@H](CCN)NC(=O)[C@H](CCN)NC(=O)[C@H](CC(C)C)NC(=O)[C@@H](Cc2ccccc2)NC(=O)[C@@H](CCN)NC1=O)[C@H](C)O`, for which the hemolysis at 1 h, 400 ug/ml in data set [1] was below 10%. The MIC in the data set with Acinetobacter baumannii [2] is 16 µg/mL (≈ 12.6 µM); in the data set with Acinetobacter baumannii [3], 2 µg/mL (≈ 1.57 µM); with Escherichia coli [4] it was 0.25 µg/mL (≈ 0.197 µM).

`CC(=O)N[C@H](Cc1cccc(F)c1)C(=O)N[C@@H](CCN)C(=O)N[C@H](C(=O)N[C@@H](CCN)C(=O)N[C@H]1CCNC(=O)[C@H]([C@@H](C)O)NC(=O)[C@H](CCN)NC(=O)[C@H](CCN)NC(=O)[C@H](CC(C)C)NC(=O)[C@@H](Cc2ccccc2)NC(=O)[C@@H](CCN)NC1=O)[C@H](C)O`: the hemolysis at 1 h, 400 ug/ml in data set [1] was below 10%. For the same compound, the MIC in the data set with Pseudomonas aeruginosa [5] is 0.25 µg/mL (≈ 0.197 µM); with Acinetobacter baumannii [2], 16 µg/mL (≈ 12.6 µM); in the data set with Acinetobacter baumannii [3] it was 1 µg/mL (≈ 0.787 µM); in the data set on Escherichia coli [4] it was 0.25 µg/mL (≈ 0.197 µM).

Regarding `CCCCCCCC(=O)N[C@@H](CCN)C(=O)N[C@H](C(=O)N[C@@H](CCN)C(=O)N[C@H]1CCNC(=O)[C@H]([C@@H](C)O)NC(=O)[C@H](CCN)NC(=O)[C@H](CCN)NC(=O)[C@H](CC(C)C)NC(=O)[C@@H](CCc2ccccc2)NC(=O)[C@H](CCN)NC1=O)[C@@H](C)O` (Octanoyl-[Dab]T[Dab][Dab][Dab][d(hPhe)]L[Dab][Dab]T; lactam 4-C), the MIC in the data set on Pseudomonas aeruginosa [5] is 0.25 µg/mL (≈ 0.208 µM); with Acinetobacter baumannii [2], 4 µg/mL (≈ 3.32 µM); in the data set with Escherichia coli [4], 0.25 µg/mL (≈ 0.208 µM).

Turning to `CCCCCCCC(=O)N[C@@H](CCN)C(=O)N[C@H](C(=O)N[C@@H](CCN)C(=O)N[C@H]1CCNC(=O)[C@H]([C@@H](C)O)NC(=O)[C@H](CCN)NC(=O)[C@H](CCN)NC(=O)[C@H](CC(C)C)NC(=O)[C@@H](CCCc2ccccc2)NC(=O)[C@H](CCN)NC1=O)[C@@H](C)O` (Octanoyl-[Dab]T[Dab][Dab][Dab][d(hhPhe)]L[Dab][Dab]T; lactam 4-C), the minimal inhibitory concentration (MIC) is 0.5 µg/mL (≈ 0.411 µM) in the data set with Pseudomonas aeruginosa [6], below 0.125 µg/mL with Acinetobacter baumannii [3] and below 0.125 µg/mL in the data set on Escherichia coli [4].

Consider `CCCCCCCC(=O)N[C@@H](CCN)C(=O)N[C@H](C(=O)N[C@@H](CCN)C(=O)N[C@H]1CCNC(=O)[C@H]([C@@H](C)O)NC(=O)[C@H](CCN)NC(=O)[C@H](CCN)NC(=O)[C@H](Cc2cc(F)c(F)c(F)c2)NC(=O)[C@@H](CC(C)C)NC(=O)[C@H](CCN)NC1=O)[C@@H](C)O` (Octanoyl-[Dab]T[Dab][Dab][Dab][dL][Phe(3,4,5-F3)][Dab][Dab]T; lactam 4-C), for which the MIC in the data set on Pseudomonas aeruginosa [5] is 0.25 µg/mL (≈ 0.201 µM); in the data set on Acinetobacter baumannii [2], 2 µg/mL (≈ 1.61 µM); in the data set with Acinetobacter baumannii [3], below 0.125 µg/mL.

For the compound `CCCCCCCC(=O)N[C@@H](CCN)C(=O)N[C@H](C(=O)N[C@@H](CCN)C(=O)N[C@H]1CCNC(=O)[C@H]([C@@H](C)O)NC(=O)[C@H](CCN)NC(=O)[C@H](CCN)NC(=O)[C@H](Cc2cccc(F)c2)NC(=O)[C@@H](CC(C)C)NC(=O)[C@H](CCN)NC1=O)[C@@H](C)O` (Octanoyl-[Dab]T[Dab][Dab][Dab][dL][Phe(3-F)][Dab][Dab]T; lactam 4-C), the MIC worked out at 4 µg/mL (≈ 3.31 µM) in the data set on Escherichia coli [7], 1 µg/mL (≈ 0.828 µM) with Pseudomonas aeruginosa [6], 0.25 µg/mL (≈ 0.207 µM) in the data set with Acinetobacter baumannii [3] and 0.25 µg/mL (≈ 0.207 µM) with Escherichia coli [4].

As for `CCCCCCCC(=O)N[C@@H](CCN)C(=O)N[C@H](C(=O)N[C@@H](CCN)C(=O)N[C@H]1CCNC(=O)[C@H]([C@@H](C)O)NC(=O)[C@H](CCN)NC(=O)[C@H](CCN)NC(=O)[C@H](Cc2ccc(Br)cc2)NC(=O)[C@@H](CC(C)C)NC(=O)[C@H](CCN)NC1=O)[C@@H](C)O` (Octanoyl-[Dab]T[Dab][Dab][Dab][dL][Phe(4-Br)][Dab][Dab]T; lactam 4-C), the minimal inhibitory concentration (MIC) with Pseudomonas aeruginosa [5] came to 0.25 µg/mL (≈ 0.197 µM); in the data set with Acinetobacter baumannii [2], 1 µg/mL (≈ 0.788 µM); in the data set on Acinetobacter baumannii [3], 0.25 µg/mL (≈ 0.197 µM).

For `CCCCCCCC(=O)N[C@@H](CCN)C(=O)N[C@H](C(=O)N[C@@H](CCN)C(=O)N[C@H]1CCNC(=O)[C@H]([C@@H](C)O)NC(=O)[C@H](CCN)NC(=O)[C@H](CCN)NC(=O)[C@H](Cc2ccc(C(F)(F)F)cc2)NC(=O)[C@@H](CC(C)C)NC(=O)[C@H](CCN)NC1=O)[C@@H](C)O` (Octanoyl-[Dab]T[Dab][Dab][Dab][dL][Phe(4-CF3)][Dab][Dab]T; lactam 4-C), the MIC in the data set with Pseudomonas aeruginosa [5] is 0.25 µg/mL (≈ 0.199 µM); with Acinetobacter baumannii [2], 1 µg/mL (≈ 0.795 µM); in the data set with Acinetobacter baumannii [3] it was below 0.125 µg/mL.

As for `CCCCCCCC(=O)N[C@@H](CCN)C(=O)N[C@H](C(=O)N[C@@H](CCN)C(=O)N[C@H]1CCNC(=O)[C@H]([C@@H](C)O)NC(=O)[C@H](CCN)NC(=O)[C@H](CCN)NC(=O)[C@H](Cc2ccc(Cl)cc2)NC(=O)[C@@H](CC(C)C)NC(=O)[C@H](CCN)NC1=O)[C@@H](C)O` (Octanoyl-[Dab]T[Dab][Dab][Dab][dL][Phe(4-Cl)][Dab][Dab]T; lactam 4-C), the MIC with Pseudomonas aeruginosa [5] was 0.25 µg/mL (≈ 0.204 µM); in the data set with Acinetobacter baumannii [2], 1 µg/mL (≈ 0.817 µM); in the data set with Acinetobacter baumannii [3], 0.125 µg/mL (≈ 0.102 µM).
